# Laboratory results: patent US4900729A, “Thieno-1,4-diazepines” (Boehringer Ingelheim KG, priority 1986, dated 1990)
# System: human thrombocytes (PAF-induced aggregation)
# Experiment: inhibition of PAF-induced aggregation of human thrombocytes in vitro
# Assay type: cell-based
# Settings: Homo sapiens, PAF-induced aggregation, read-out: IC50 (concentration for a 50% inhibition of aggregation)
# Experimental: The PAF-antagonistic activity of some compounds of formula I was investigated by means of the inhibition of blood platelet aggregation in vitro and the antagonising of the PAF-induced bronchoconstriction in anaesthetised guinea pigs, the lowering of blood pressure in anaesthetised rats and skin wheals in rats. Moreover, these compounds were tested for any possible side effects on the central nervous system.
# 1. In vitro tests: inhibition of blood platelet aggregation
# In order to determine the PAF-antagonistic activity of substances, the PAF-induced aggregation of human thrombocytes in vitro was used. In order to obtain thrombocyte-rich plasma (TRP) blood was taken from an unconstricted vein using a plastic syringe containing 3.8% of sodium citrate solution. The ratio of sodium citrate solution to blood was 1:9. After careful mixing, the citrated blood was centrifuged for 20 minutes at 150×g (1200 rpm). The thrombocyte aggregation was measured using the method developed by Born and Cross (G. V. R. Born and M. J. Cross, J. Physiol. 168, 178 (1963)), in which PAF is added to the TRP with constant stirring in order to initiate aggregation.
# The test substance is added 2 to 3 minutes before aggregation is induced, in a volume of 10 μl. The solvent used is either distilled water, ethanol and/or dimethylsulphoxide. The controls were given corresponding volumes of this solvent. After the initial absorption had been recorded (2 to 3 minutes) aggregation was induced with PAF (5×10^-8 M).
# The maximum of the first aggregation wave is used to assess the effects of the substance. The PAF-induced maximum absorption rate (=maximum aggregation×100%) is simultaneously tested in a parallel mixture (=control mixture in one of the channels of the 2-channel aggregometer) with each test batch (second channel) and is used as the 100% value.
# The level of aggregation achieved under the effect of the […] is given […].
# Each test substance is tested at concentrations of from 10^-3 to 10^-8 M with a random sampling range of n=4 in order to investigate an inhibiting effect on the PAF-induced thrombocyte aggregation. A concentration-activity curve is then plotted using 3 concentrations and the IC50 is determined (concentration for a 50% inhibition of aggregation). The IC values of compounds of general formula I are generally around levels of less than 9 μM.
row,SMILES,IC50 [nM]
1,"Cc1nnc2n1-c1ccc(Cl)cc1C(c1ccccc1Cl)=NC2 [Triazolam, triazolam, reference compound]",9000

# Same assay, conditions: PAF-induced aggregation, read-out: IC50 (concentration for a 50% inhibition of aggregation)
row,SMILES,IC50 [nM]
1,"Cc1nnc2n1-c1ccc(Cl)cc1C(c1ccccc1)=NC2 [Alprazolam, alprazolam, reference compound]",14000

# Same assay, conditions: Platelet, Table A, PAF 5×10^-8 M, human thrombocyte-rich plasma, read-out: IC50 (inhibition of blood platelets)
row,SMILES,IC50 [nM]
1,"Cc1nnc2n1-c1sc(CCS(=O)(=O)N3CCN(C)CC3)cc1C(c1ccccc1Cl)=NC2 [Example 1, 2-[4-(2-Chlorophenyl)-9-methyl-6H-thieno[3,2-f][1,2,4]triazolo[4,3-a][1,4]diazepin-2-yl]-ethane-1-sulphonic acid-N'-methylpiperazide]",300
2,"CC(=O)OCCCc1cc2c(s1)-n1c(C)nnc1CN=C2c1ccccc1Cl [Example 2, 3-[4-(2-Chlorophenyl)-9-methyl-6H-thieno[3,2-f][1,2,4]triazolo[4,3-a][1,4]diazepin-2-yl]propyl acetate]",< 200
3,"CC(=O)OCCCCCCCc1cc2c(s1)-n1c(C)nnc1CN=C2c1ccccc1Cl [Example 4, 7-[4-(2-Chlorophenyl)-9-methyl-6H-thieno[3,2-f][1,2,4]triazolo[4,3-a][1,4]diazepin-2-yl]heptyl acetate]",< 200
4,"Cc1nnc2n1-c1sc(CCCCCCCN3C(=O)c4ccccc4C3=O)cc1C(c1ccccc1Cl)=NC2 [Example 8, 2-(7-N-Phthalimidoheptyl)-4-(2-chlorophenyl)-9-methyl-6H-thieno[3,2-f][1,2,4]triazolo[4,3-a][1,4]-diazepine]",< 300
5,"Cc1nnc2n1-c1sc(CCCCCCCN)cc1C(c1ccccc1Cl)=NC2 [Example 9, 2-(7-Amino-heptyl)-4-(2-chlorophenyl)-9-methyl-6H-thieno[3,2-f][1,2,4]triazolo[4,3-a][1,4]diazepine]",200
6,"CC(=O)NCCCCCCCc1cc2c(s1)-n1c(C)nnc1CN=C2c1ccccc1Cl [Example 10, 2-(7-Acetylaminoheptyl)-4-(2-chlorophenyl)-9-methyl-6H-thieno[3,2-f][1,2,4]triazolo[4,3-a][1,4]diazepine]",1700
7,"Cc1nnc2n1-c1sc(CCCN3CCOCC3)cc1C(c1ccccc1Cl)=NC2 [Example 11, 2-(3-(N-Morpholinyl)propyl)-4-(2-chlorophenyl)-9-methyl-6H-thieno[3,2-f][1,2,4]triazolo[4,3-a][1.4]-diazepine]",< 200
8,"Cc1nnc2n1-c1sc(CCCCCCC=O)cc1C(c1ccccc1Cl)=NC2 [Example 12, 2-(6-Formylhexyl)-4-(2-chlorophenyl)-9-methyl-6H-thieno[3,2-f][1,2,4]triazolo[4,3-a][1,4]diazepine]",300
9,"CC(=O)OCCCc1cc2c(s1)-n1c(Br)nnc1CN=C2c1ccccc1Cl [Example 13, 2-(3-Acetoxypropyl)-4-(2-chlorophenyl)-9-bromo-6H-thieno[3,2-f][1,2,4]triazolo[4,3-a][1,4]diazepine]",300
10,"Cc1nnc2n1-c1sc(CC(C)C(=O)N3CCOCC3)cc1C(c1ccccc1Cl)=NC2 (stereo not shown) [Example 14i, 2-[2-(Morpholin-4-yl-carbonyl)-n-propyl]-4-(2-chlorophenyl)-9-methyl-6H-thieno[3,2-f][1,2,4]triazolo[4,3-a][1,4]diazepine]",400
11,"Cc1nnc2n1-c1sc(CCCN3CCOCC3)cc1C(c1ccccc1Cl)NC2 (stereo not shown) [Example 14l, 2-[3-(N-Morpholinyl)-n-propyl]-4-(2-chlorophenyl)-9-methyl-4,5-dihydro-6H-thieno[3,2-f][1,2,4]triazolo-[4,3-a][1,4]diazepine]",600
12,Cc1nnc2n1-c1sc(CCS(=O)(=O)N3CCOCC3)cc1C(c1ccccc1Cl)=NC2 [Example 20],300
13,Cc1nnc2n1-c1sc(CCCCCCCOS(C)(=O)=O)cc1C(c1ccccc1Cl)=NC2 [Example 23],900
14,Cc1nnc2n1-c1sc(CCCOC(=O)C(C)(C)C)cc1C(c1ccccc1Cl)=NC2 [Example 25],900
15,Cc1nnc2n1-c1sc(CCCCCCCOC(=O)C(C)(C)C)cc1C(c1ccccc1Cl)=NC2 [Example 27],200
16,Cc1nnc2n1-c1sc(CCCN3CCCCC3)cc1C(c1ccccc1Cl)=NC2 [Example 45],300
17,Cc1nnc2n1-c1sc(CCCCCCCN3CCN(C)CC3)cc1C(c1ccccc1Cl)=NC2 [Example 49],1000
18,CC(=O)OCCCc1cc2c(s1)-n1cnnc1CN=C2c1ccccc1Cl [Example 50],600
19,Cc1nnc2n1-c1sc(CCCN3CCOCC3)cc1C(c1ccccc1)=NC2 [Example 54],1100
20,CC(=O)OCCCc1cc2c(s1)-n1c(C)cnc1CN=C2c1ccccc1Cl [Example 56],300
21,CC(=O)OCCCCCCCc1cc2c(s1)-n1c(C)cnc1CN=C2c1ccccc1Cl [Example 58],< 200
22,Cc1nnc2n1-c1sc(CCCCCCCNCCN(C)C)cc1C(c1ccccc1Cl)=NC2 [Example 60],900
23,Cc1nnc2n1-c1sc(CCCn3cncn3)cc1C(c1ccccc1Cl)=NC2 [Example 64],< 200
24,CCN(CC)CCCc1cc2c(s1)-n1c(C)nnc1CN=C2c1ccccc1Cl [Example 71],900
25,Cc1nnc2n1-c1sc(CCCNCCN3CCOCC3)cc1C(c1ccccc1Cl)=NC2 [Example 75],1900
26,Cc1nnc2n1-c1sc(CCCO)cc1C(c1ccccc1Cl)NC2 (stereo not shown) [Example 98],2300
27,"Cc1nnc2n1-c1ccc(Cl)cc1C(c1ccccc1Cl)=NC2 [Triazolam, triazolam, reference compound]",9000

# Same assay, conditions: Table A, PAF 5×10^-8 M, human thrombocyte-rich plasma, read-out: IC50 (inhibition of blood platelets)
row,SMILES,IC50 [nM]
1,"Cc1nnc2n1-c1ccc(Cl)cc1C(c1ccccc1)=NC2 [Alprazolam, alprazolam, reference compound]",14000

# System: not given
# Experiment: not given
# Settings: commercially available tranquillisers or hypnotics; cited from earlier work
row,SMILES,sedative effect of known benzodiazepines
1,"Cc1nnc2n1-c1ccc(Cl)cc1C(c1ccccc1Cl)=NC2 [Triazolam, triazolam, reference compound]",marked sedative effect
